From patent US20260284002A1, “COMPOSITIONS AND METHODS OF CONTROLLING MAMMALIAN SATIETY” (VitaKey Inc., priority 2023, published 2026)

Experiment: Release of linoleic acid in simulated intestinal fluid with 0.2% (w/v) sodium taurocholate
Assay type: physicochemical
Conditions: simulated intestinal fluid 37° C. with 0.2% (w/v) sodium taurocholate; FIG. 25B
Procedure: A mixture of 40% (w/w) linoleic acid, 30% (w/w) 27-Stearine, and 30% (w/w) CITREM was heated to 80° C. while stirring to allow for complete mixing, followed by cooling at 4° C. for 1 hour. […] Formulated linoleic acid microparticles were added to 3 of these 6 tubes, while unformulated linoleic acid was added to the remaining 3 tubes.

emulsification in bile-salt rich simulated intestinal fluid: rapidly emulsified
SMILES: CCCCC/C=C\C/C=C\CCCCCCCC(=O)O [unformulated linoleic acid, linoleic acid]
